Each structure is given as a SMILES string.

The values below come from patent US20220354754A1, “FOAM COMPOSITIONS” (The Procter & Gamble Company, priority 2021, published 2022).

The series in a line: Water solubility of blowing agents at 20° C. The note with it: in water.
Regarding `CCCC` [Butane], the “Water solubility at 20° C. (weight percent)” value is less than 0.01% weight percent.
The same measure for `O=C=O` [Carbon dioxide]: 0.8% weight percent; for `COC` [Dimethyl ether]: 7% weight percent.
Turning to `[He]` [Helium], the “Water solubility at 20° C. (weight percent)” value was less than 0.01 weight percent.
In the case of `CC(C)C` [Isobutane], the “Water solubility at 20° C. (weight percent)” value is listed as less than 0.01% weight percent.
As for `[N-]=[N+]=O` [Nitrous oxide], the “Water solubility at 20° C. (weight percent)” value came out at 0.12 weight percent.
